Measured values from article PMC4365380, “Synthesis and Biological Activity of Arylspiroborate Salts Derived from Caffeic Acid Phenethyl Ester” (International Journal of Medicinal Chemistry, 2015).

Target: T1, 5-lipoxygenase (5-LO) (Homo sapiens, UniProt P09917)
T1 construct: gene ALOX5
T1 sequence (P09917 1-674): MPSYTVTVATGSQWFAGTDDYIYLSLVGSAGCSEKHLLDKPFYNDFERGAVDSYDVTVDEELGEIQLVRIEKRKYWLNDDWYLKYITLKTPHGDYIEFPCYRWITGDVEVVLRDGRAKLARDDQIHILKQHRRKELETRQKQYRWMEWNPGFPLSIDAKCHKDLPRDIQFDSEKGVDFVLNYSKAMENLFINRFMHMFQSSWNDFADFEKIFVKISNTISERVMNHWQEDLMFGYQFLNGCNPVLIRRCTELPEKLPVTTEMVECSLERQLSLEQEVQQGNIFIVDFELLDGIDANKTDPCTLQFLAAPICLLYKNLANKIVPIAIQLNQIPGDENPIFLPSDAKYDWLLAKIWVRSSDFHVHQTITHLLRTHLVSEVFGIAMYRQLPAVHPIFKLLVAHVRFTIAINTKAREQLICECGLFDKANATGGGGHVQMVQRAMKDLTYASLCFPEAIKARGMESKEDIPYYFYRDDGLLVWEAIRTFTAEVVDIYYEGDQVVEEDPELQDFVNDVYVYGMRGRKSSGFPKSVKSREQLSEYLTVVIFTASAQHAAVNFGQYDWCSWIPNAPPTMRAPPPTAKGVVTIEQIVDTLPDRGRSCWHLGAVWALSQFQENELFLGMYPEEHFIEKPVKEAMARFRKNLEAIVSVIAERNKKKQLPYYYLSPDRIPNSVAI
T1 sequence (P20292 1-161 partner): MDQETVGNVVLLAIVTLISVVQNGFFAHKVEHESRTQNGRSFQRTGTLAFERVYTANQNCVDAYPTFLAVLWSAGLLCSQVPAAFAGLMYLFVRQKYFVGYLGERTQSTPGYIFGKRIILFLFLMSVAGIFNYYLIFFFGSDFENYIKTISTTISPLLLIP
Experiment: 5-LO product biosynthesis (RP-HPLC) in thapsigargin-stimulated human PMNL; also HEK293 cells expressing 5-LO and FLAP
Format: cell-based
Details: read-out: IC50 (μM) [SEM]^*

`O=C(/C=C/c1ccc(O)c(O)c1)OCCc1ccccc1` [compound 3, CAPE] showed an IC50 of 1.11 µM.
